The text below walks through data of patent US20020132855A1, “Use of acetaminophen to prevent and treat arteriosclerosis” (priority 2000, published 2002).

Molecules are shown by their SMILES.

Assay [1] is described as follows: Total plasma cholesterol levels in cholesterol-fed rabbits. It is filed as in vivo, New Zealand white rabbits. From the text:
Twenty-three, six-week old male New Zealand white rabbits obtained from Myrtle's Rabbitry (Houston, Tex.) and weighing between about 1.8 kg and 2 kg were separated into two groups: Group 1 (experimental) having 12 rabbit/group and Group 2 (control) having 11 rabbits/group. At the beginning of the study, all rabbits were allowed water ad libitum and ate normal rabbit chow. After a two week acclimatization period, all of the rabbits were then placed on normal rabbit chow supplemented with 1% cholesterol (ICN Biochemicals, Inc., Costa Mesa, Calif.), in order to induce fatty streak formation in their blood vessel walls. Rabbits in Group 1 were switched from water to an acetaminophen solution for about a 40 mg/kgrabbit APAP dose. A 40 mg/kg dose of APAP in a 2.5 kg rabbit is equivalent to about a 2800 mg/day dose in a 70 kg human. The other group of rabbits remained on water for the remainder of the study. The cages were monitored daily in order to assure that each rabbit consumed the contents of his respective water bottle. After cannulating the femoral artery and advancing into the distal aorta region of each rabbit, blood was aspirated therefrom for isolation of LDL fraction. The blood of each rabbit was drawn into 1000 U of Heparin sodium in order to prevent coagulation, then the plasma was separated therefrom via centrifugation at 2000 rpm for ten minutes. […]

The test system of the next assay is oxysterols in LDL. Put plainly: Oxysterol concentrations in LDL isolated from cholesterol-fed rabbits. It is filed as in vivo, New Zealand white rabbits. Here is the method:
LDL Isolation: Plasma LDL was prepared by ultracentrifuation of a blood sample as disclosed in Havel, “The Distribution and Chemical Composition of Ultracentrifugally Separated Lpoproteins in Human Serum,” 34 JI. Clin. Inv. 1345 […], within a density cutoff of 1.020 g/ml to 1.055 g/ml and with the addition of 0.5 mg/ml ethylenediaminetetracetic acid (‘EDTA’) thereto. After adding a sample of this mixture to a semi-permable bag, the LDL was dialyzed therefrom against a vacuum-degassed 0.01 M Tris solution containing 0.15 M NaCl and 0.1 mg/ml EDTA under dark conditions and at 4° C. for 48 hours, followed by dialysis overnight using the same equipment but with a 0.01M phosphate buffer solution containing 0.15 M NaCl and no EDTA. The dialyzed LDL protein concentrations were then determined via the method set forth in Lowry, ‘Protein Measurement with the Folin Phenol Reagent,’ 226 J. Biol. Chem. 497-509 (1951).
(§1) Twenty-three, six-week old male New Zealand white rabbits obtained from Myrtle's Rabbitry (Houston, Tex.) and weighing between about 1.8 kg and 2 kg were separated into two groups: Group 1 (experimental) having 12 rabbit/group and Group 2 (control) having 11 rabbits/group. At the beginning of the study, all rabbits were allowed water ad libitum and ate normal rabbit chow.
After a two week acclimatization period, all of the rabbits were then placed on normal rabbit chow supplemented with 1% cholesterol (ICN Biochemicals, Inc., Costa Mesa, Calif.), in order to induce fatty streak formation in their blood vessel walls. Rabbits in Group 1 were switched from water to an acetaminophen solution for about a 40 mg/kgrabbit APAP dose. A 40 mg/kg dose of APAP in a 2.5 kg rabbit is equivalent to about a 2800 mg/day dose in a 70 kg human. The other group of rabbits remained on water for the remainder of the study. The cages were monitored daily in order to assure that each rabbit consumed the contents of his respective water bottle.
Oxo-sterol concentrations in the isolated LDL were also determined by the method set forth in Hughes, et. al., “Cytotoxicity of Oxidized LDL to Porcine Aortic Smooth Muscle Cells Is Associated with the Oxysterols 7-ketocholesterol and 7-hydrocholesterol,” 14(7) Arterioscler. Thromb. 1177-85 (1994). In general, the oxysterols were initially separated from the LDL via a Bligh and Dyer extraction followed by extraction using amino-propyl solid phase extraction columns available from Varian Instruments in order to further separate the lipids by polarity. The oxysterol-containing eluents were then dried therefrom under a nitrogen atmosphere and derivatized with N,O-bis(trimethylsilyl)trifluooroacetamide) (“BSTFA”) in a test tube. 10 μl of cholestane was added to the dried eluent at the time of derivatization as an internal standard. The derivatized samples were then analyzed using a gas chromatograph column having a flame ionization detector .The column program included initial temperature of 250° C. for 2 minutes, followed by temperature increases of 8° C./minute to 325° C., and then a final 8 minute temperature hold at 325° C. The amount of oxysterols in the LDL were then quantitated using known standards by ratio of the peak area of the oxysterol to cholestane. The concentrations of oxysterols are set forth below in Table B: […]

Assay [2] relates to low density lipoprotein (LDL). The note with it: literature report; cited from earlier work.
Assay [3] concerns isolated LDL. The assay is described as follows: TBARS analysis of copper-mediated oxidation of isolated LDL. To be noted: 0.1 mg/ml LDL from APAP-fed rabbits, 5 μM CuSO4, 37° C., 4, 8 and 12 hours. The arrangement: species or system New Zealand white rabbits. The protocol:
LDL Isolation: Plasma LDL was prepared by ultracentrifuation of a blood sample as disclosed in Havel, “The Distribution and Chemical Composition of Ultracentrifugally Separated Lpoproteins in Human Serum,” 34 JI. Clin. Inv. 1345 […], within a density cutoff of 1.020 g/ml to 1.055 g/ml and with the addition of 0.5 mg/ml ethylenediaminetetracetic acid (‘EDTA’) thereto. After adding a sample of this mixture to a semi-permable bag, the LDL was dialyzed therefrom against a vacuum-degassed 0.01 M Tris solution containing 0.15 M NaCl and 0.1 mg/ml EDTA under dark conditions and at 4° C. for 48 hours, followed by dialysis overnight using the same equipment but with a 0.01M phosphate buffer solution containing 0.15 M NaCl and no EDTA. The dialyzed LDL protein concentrations were then determined via the method set forth in Lowry, ‘Protein Measurement with the Folin Phenol Reagent,’ 226 J. Biol. Chem. 497-509 (1951). […] The concentrations of thiobarbituric acid reactive substances (“TBARS”) in each mixture were then measured with the same spectrophotometer as described by Streinbrecher, et al., “Decrease in reactive amino groups during oxidation or endothelial cell modification of LDL,” Arteriosclerosis 1987;7:135-143.

Assay [4] concerns fatty streaks in the blood vessels of rabbits. Put plainly: Fatty streak formation in aorta of cholesterol-fed rabbits. To be noted: rabbits on 1% cholesterol chow, 12 weeks. It is filed as in vivo, New Zealand white rabbits.
Source text: This investigation used an experimental system in which fatty streaks are induced in the blood vessels of rabbits by incorporation of 1 % cholesterol in their food. For further detail, see A. A. Taylor and C. V. Smith, Circulation 18 I-697 (1999). Similar experimental systems have been used previously for the evaluation of the efficacy of pharmaceutical compounds for treating, preventing, and regressing atherosclerosis. For example, see Daugherty, A., et al., “Probucol Attentuates the Development of Aortic Atherosclerosis in Cholesterol-Fed Rabbits,” 98(2) Br. J. Pharm. 612-18 (1989), which is incorporated by reference herein.
as §1
After a two week acclimatization period, all of the rabbits were then placed on normal rabbit chow supplemented with 1% cholesterol (ICN Biochemicals, Inc., Costa Mesa, Calif.), in order to induce fatty streak formation in their blood vessel walls. […] The cages were monitored daily in order to assure that each rabbit consumed the contents of his respective water bottle. […]

Assay [5] deals with isolated LDL. The assay is described as follows: Dienes analysis of copper-mediated oxidation of isolated LDL. Details: species or system New Zealand white rabbits. The note with it: 0.1 mg/ml LDL from APAP-fed rabbits, 5 μM CuSO4, 37° C., 6 hour period, FIG. 1. Here is the method:
LDL Isolation: Plasma LDL was prepared by ultracentrifuation of a blood sample as disclosed in Havel, “The Distribution and Chemical Composition of Ultracentrifugally Separated Lpoproteins in Human Serum,” 34 JI. Clin. Inv. 1345 […], within a density cutoff of 1.020 g/ml to 1.055 g/ml and with the addition of 0.5 mg/ml ethylenediaminetetracetic acid ('EDTA') thereto. After adding a sample of this mixture to a semi-permable bag, the LDL was dialyzed therefrom against a vacuum-degassed 0.01 M Tris solution containing 0.15 M NaCl and 0.1 mg/ml EDTA under dark conditions and at 4° C. for 48 hours, followed by dialysis overnight using the same equipment but with a 0.01M phosphate buffer solution containing 0.15 M NaCl and no EDTA. The dialyzed LDL protein concentrations were then determined via the method set forth in Lowry, 'Protein Measurement with the Folin Phenol Reagent,' 226 J. Biol. Chem. 497-509 (1951). […] Analysis: The kinetics of these copper-mediated oxidation reactions were followed at 10 minute intervals for a total period of 6 hours by monitoring changes in absorbance at 234 nm of each mixture using a Model UV-2101PC spectrophotometer available from Shimadzu. […]

The mark [6] stands for this setting: APAP-fed versus control rabbits.

For `CC(=O)Nc1ccc(O)cc1` [APAP, N-(4-hydroxyphenyl) acetamide], the “Average Circulating total Plasma Cholesterol Level” value in assay [1] (APAP-fed rabbits, 1% cholesterol chow, 12 weeks, control 1441 ± 87) was 1592 ± 43 mg/dL. Moreover, the “Amount of circulating cholesterol in the blood plasma versus control” value in assay [1] (setting [6]) was “did not produce a significant difference”. For the same compound, the “Average 5b, 6b-epoxide concentration in LDL” value in the assay on oxysterols in LDL (APAP-fed rabbits, 1% cholesterol chow, 12 weeks, control 0.24 + 0.05) is listed as 0.12 + 0.13 nmol/mg LDL. The “Average 5a, 6a-epoxide concentration in LDL” value with oxysterols in LDL (APAP-fed rabbits, 1% cholesterol chow, 12 weeks, control 0.49 + 0.08) was 0.11 + 0.05 nmol/mg LDL. The “Average 7bOH-cholesterol concentration in LDL” value with oxysterols in LDL (APAP-fed rabbits, 1% cholesterol chow, 12 weeks, control 1.01 + 0.26) is on record as 0.32 + 0.07 nmol/mg LDL. In the assay on oxysterols in LDL (APAP-fed rabbits, 1% cholesterol chow, 12 weeks, control 2.31 + 0.62), the “Average 7aOH-cholesterol concentration in LDL” value is listed as 0.58 + 0.12 nmol/mg LDL. The “Average 7keto-cholesterol concentration in LDL” value with oxysterols in LDL (APAP-fed rabbits, 1% cholesterol chow, 12 weeks, control 3.86 + 1.72) was 0.41 + 0.14 nmol/mg LDL. Moreover, in the assay on oxysterols in LDL (setting [6]), the “Decrease in 7-alpha hydroxycholesterol values” is on record as 4 fold, the “Decrease in 7-beta hydroxycholesterol values” turned out to be 3 fold and the “Decrease in 7-keto cholesterol values” was determined as 9 fold. Moreover, the “LDL lipid oxidation in vitro” value in assay [2] is reported as “prevent low density lipoprotein (“LDL”) lipid oxidation in vitro”. For the same compound, the “TBARS formed during the LDL oxidation versus control” value with isolated LDL [3] was “comparable”. Besides, the “Average Fatty Streak/Total Aortic Area” value in assay [4] (about 40 mg/kg APAP in drinking water, control 0.58 + 0.06) is 0.32 + 0.05. Besides, the “Aortic fatty streak areas versus control” value in assay [4] (about 40 mg/kg APAP, p<0.001) was “significantly reduced aortic fatty streak areas”. Further, the “Absorbance at 234 nm of isolated LDL (dienes) versus control” value with isolated LDL [5] is given as “lower absorbance values”.
